In ChEMBL document CHEMBL4138121, “Selective photocytotoxicity of anthrols on cancer stem-like cells: The effect of quinone methides or reactive oxygen species” (Eur J Med Chem, 2017):
pIC50: −log10 of the molar value. Active and inactive are the calls of the source. The calls are words filed in the database; no cut-off is given here.

Experiments:
[1] = Drug uptake in plasma membranes of HMLE-shGFP cells at 5 uM irradiated at 420 nm for 5 mins measured after 2 to 3 hrs by confocal microscopic method; type: ADME, cell membranes, Plasma membrane; settings: human
[2] = Cell cycle arrest in HMLE-shEcad cells assessed as delay in G1/S phase at 1 to 10 uM after 24 to 48 hrs in absence of irradiation by propidium iodide staining-based flow cytometric method; settings: human
HMLE [3] = assay: Cell cycle arrest in HMLE-shEcad cells assessed as accumulation at G2/M phase at 1 to 10 uM irradiated at 420 nm at 4 hrs post compound addition for 5 mins measured after 24 to 48 hrs by propidium iodide staining-based flow cytometric method; type: functional; settings: Homo sapiens
[4] = Cell cycle arrest in HMLE-shGFP cells assessed as accumulation at G2/M phase at 1 to 10 uM irradiated at 420 nm at 4 hrs post compound addition for 5 mins measured after 24 to 48 hrs by propidium iodide staining-based flow cytometric method; settings: human
[5] = Decrease in reactive oxygen species generation in HMLE-shEcad cells at 1 uM in absence of irradiation measured after 2 hrs by H2DCF-DA dye-based FACS analysis; type: ADME, cell-based; settings: human
[6] = Drug uptake in cytoplasm of HMLE-shEcad cells at 10 uM in absence of irradiation measured after 2 to 3 hrs by confocal microscopic method; type: ADME, subcellular; settings: human
SUM-159-PT [7] = assay: Photocytotoxicity against human SUM159 cells assessed as growth inhibition irradiated at 420 nm at 4, 24, 48 hrs post compound addition for 5 mins measured after 72 hrs by MTT assay; type: functional, cell-based; settings: light or radiation study
[8] = Induction of cell damage in HMLE-shGFP cells assessed as cell swelling at 5 uM irradiated at 420 nm for 5 mins measured after 2 to 3 hrs by confocal microscopic method; type: cell-based; settings: human
MCF7 [9] = assay: Photocytotoxicity against human MCF7 cells assessed as growth inhibition irradiated at 350 nm at 4, 24, 48 hrs post compound addition for 5 mins measured after 72 hrs by MTT assay; type: functional, cell-based; settings: MCF7, light or radiation study
NCI-H460 [10] = assay: Photocytotoxicity against human H460 cells assessed as growth inhibition irradiated at 350 nm at 4, 24, 48 hrs post compound addition for 5 mins measured after 72 hrs by MTT assay; type: functional, cell-based; settings: NCI-H460, light or radiation study
HMLE [11] = assay: Cell cycle arrest in HMLE-shEcad cells assessed as accumulation at S phase at 1 to 10 uM irradiated at 420 nm at 4 hrs post compound addition for 5 mins measured after 24 to 48 hrs by propidium iodide staining-based flow cytometric method; type: functional; settings: Homo sapiens
[12] = Cell cycle arrest in HMLE-shGFP cells assessed as accumulation at S phase at 1 to 10 uM irradiated at 420 nm at 4 hrs post compound addition for 5 mins measured after 24 to 48 hrs by propidium iodide staining-based flow cytometric method; settings: human
[13] = Photocytotoxicity against HMLE-shGFP cells assessed as growth inhibition irradiated at 350 nm at 4, 24, 48 hrs post compound addition for 5 mins measured after 72 hrs by MTT assay; type: cell-based; settings: Homo sapiens, light or radiation study
[14] = Photocytotoxicity against HMLE-shEcad cells assessed as growth inhibition irradiated at 420 nm at 4, 24, 48 hrs post compound addition for 5 mins measured after 72 hrs by MTT assay; type: functional, cell-based; settings: Homo sapiens, light or radiation study
HMLE [15] = assay: Anticlonogenic activity against HMLE-shEcad cells at 0.5 to 1 uM irradiated at 350 nm at 4 hrs post compound addition for 5 mins for 5 mins measured after 24 hrs by crystal violet staining-based assay; type: functional, cell-based; settings: Homo sapiens
HMLE [16] = assay: Cytotoxicity against HMLE-shEcad cells at 10 uM irradiated at 420 nm at 4 hrs post compound addition for 5 mins measured after 48 hrs by propidium iodide staining-based flow cytometric method; type: functional, cell-based; settings: Homo sapiens
[17] = Drug uptake in nucleus of HMLE-shGFP cells at 5 uM irradiated at 420 nm for 5 mins measured after 2 to 3 hrs by confocal microscopic method; type: ADME, subcellular; settings: human
[18] = Induction of cell damage in HMLE-shGFP cells assessed as degradation of internal structure at 5 uM irradiated at 420 nm for 5 mins measured after 2 to 3 hrs by confocal microscopic method; type: cell-based; settings: human
MCF7 [19] = assay: Photocytotoxicity against human MCF7 cells assessed as growth inhibition irradiated at 420 nm at 4, 24, 48 hrs post compound addition for 5 mins measured after 72 hrs by MTT assay; type: functional, cell-based; settings: MCF7, light or radiation study
[20] = Dark toxicity against human H460 cells after 72 hrs by MTT assay; type: cell-based, NCI-H460
HCT-116 [21] = assay: Photocytotoxicity against human HCT116 cells assessed as growth inhibition irradiated at 420 nm at 4, 24, 48 hrs post compound addition for 5 mins measured after 72 hrs by MTT assay; type: functional, cell-based; settings: HCT-116, light or radiation study
[22] = Induction of reactive oxygen species generation in HMLE-shGFP cells at 1 to 10 uM irradiated at 420 nm for 5 mins measured after 2 hrs by H2DCF-DA dye-based FACS analysis relative to non-irradiated cells; type: cell-based; settings: human
[23] = Dark toxicity against HMLE-shEcad cells after 72 hrs by MTT assay; type: cell-based; settings: human
[24] = Photocytotoxicity against HMLE-shGFP cells assessed as growth inhibition irradiated at 420 nm at 4, 24, 48 hrs post compound addition for 5 mins measured after 72 hrs by MTT assay; type: cell-based; settings: Homo sapiens, light or radiation study
MCF7 [25] = assay: Cell cycle arrest in human MCF7 cells in presence of irradiation; type: functional, cell-based
SUM-159-PT [26] = assay: Cell cycle arrest in human SUM159 cells in presence of irradiation; type: functional, cell-based
[27] = Drug uptake in intracellular membranes of HMLE-shGFP cells at 5 uM irradiated at 420 nm for 5 mins measured after 2 to 3 hrs by confocal microscopic method; type: ADME, cell membranes, Intracellular membrane; settings: human
[28] = Dark toxicity against HMLE-shGFP cells after 72 hrs by MTT assay; type: cell-based; settings: human
MCF7 [29] = assay: Induction of reactive oxygen species generation in human MCF7 cells at 1 to 10 uM irradiated at 420 nm for 5 mins measured after 2 hrs by H2DCF-DA dye-based FACS analysis; type: functional, cell-based
[30] = Dark toxicity against human SUM159 cells after 72 hrs by MTT assay; type: cell-based, SUM-159-PT
[31] = Drug uptake in cytoplasm of HMLE-shGFP cells at 5 uM irradiated at 420 nm for 5 mins measured after 2 to 3 hrs by confocal microscopic method; type: ADME, subcellular; settings: human
[32] = Drug uptake in nucleus of HMLE-shEcad cells at 10 uM in absence of irradiation measured after 2 to 3 hrs by confocal microscopic method; type: ADME, subcellular; settings: human
[33] = Dark toxicity against human HCT116 cells after 72 hrs by MTT assay; type: cell-based, HCT-116
[34] = Cytotoxicity against HMLE-shGFP cells at 10 uM irradiated at 420 nm at 4 hrs post compound addition for 5 mins measured after 48 hrs by propidium iodide staining-based flow cytometric method; type: cell-based; settings: human
SUM-159-PT [35] = assay: Induction of reactive oxygen species generation in human SUM159 cells at 1 to 10 uM irradiated at 420 nm for 5 mins measured after 2 hrs by H2DCF-DA dye-based FACS analysis; type: functional, cell-based
[36] = Induction of cell damage in HMLE-shGFP cells assessed as membrane blebbing at 5 uM irradiated at 420 nm for 5 mins measured after 2 to 3 hrs by confocal microscopic method; type: cell-based; settings: human
NCI-H460 [37] = assay: Photocytotoxicity against human H460 cells assessed as growth inhibition irradiated at 420 nm at 4, 24, 48 hrs post compound addition for 5 mins measured after 72 hrs by MTT assay; type: functional, cell-based; settings: NCI-H460, light or radiation study
[38] = Dark toxicity against human MCF7 cells after 72 hrs by MTT assay; type: cell-based
HCT-116 [39] = assay: Photocytotoxicity against human HCT116 cells assessed as growth inhibition irradiated at 350 nm at 4, 24, 48 hrs post compound addition for 5 mins measured after 72 hrs by MTT assay; type: functional, cell-based; settings: HCT-116, light or radiation study
[40] = Photocytotoxicity against HMLE-shEcad cells assessed as growth inhibition irradiated at 350 nm at 4, 24, 48 hrs post compound addition for 5 mins measured after 72 hrs by MTT assay; type: functional, cell-based; settings: Homo sapiens, light or radiation study

Structure (SMILES): Oc1ccc2cc3ccccc3cc2c1
- Drug uptake [1]: Active
- Activity [2]: Toxic
- Activity (HMLE [3]): Active
- Activity [4]: Toxic
- Activity [5]: Toxic
- Drug uptake [6]: Active
- pIC50 (SUM-159-PT [7]): 5.70
- Activity [8]: Toxic
- pIC50 (MCF7 [9]): 5.70
- pIC50 (NCI-H460 [10]): 4.92
- Activity (HMLE [11]): Active
- Activity [12]: Toxic
- pIC50 [13]: 5.70
- pIC50 [14]: 6.00
- Activity (HMLE [15]): Active
- Activity (HMLE [16]): Active
- Drug uptake [17]: Not Active
- Activity [18]: Toxic
- pIC50 (MCF7 [19]): 6.00
- IC50 at 72 h [20]: 23 µM
- pIC50 (HCT-116 [21]): 5.70
- fold change (FC) [22]: 2
- IC50 at 72 h [23]: 25 µM
- pIC50 [24]: 5.70
- Activity (MCF7 [25]): inactive
- Activity (SUM-159-PT [26]): inactive
- Drug uptake [27]: Active
- IC50 at 72 h [28]: 27 µM
- Activity (MCF7 [29]): Active
- IC50 at 72 h [30]: 18 µM
- Drug uptake [31]: Active
- Drug uptake [32]: Not Active
- IC50 at 72 h [33]: 27 µM
- Activity [34]: Toxic
- Activity (SUM-159-PT [35]): Active
- Activity [36]: Toxic
- pIC50 (NCI-H460 [37]): 5.70
- IC50 at 72 h [38]: 28 µM
- pIC50 (HCT-116 [39]): 5.05
- pIC50 [40]: 5.70
